For 18 compounds, EC50 results are on record in patent US9546160B2, “Hepatitis C virus inhibitors” (Bristol-Myers Squibb Company, priority 2011, dated 2017).

The assay has as its system HCV 1b genotype. Nature of the assay: HCV Replicon assay. The note with it: HCV 1b genotype replicon. It counts as cell-based. As to the method:
An HCV Replicon assay was utilized in the present disclosure, and was prepared, conducted and validated as described in commonly owned PCT/US2006/022197 and in O'Boyle et. al. Antimicrob Agents Chemother. 2005 Apr; 49(4):1346-53. Assay methods incorporating luciferase reporters have also been used as described (Apath.com).
HCV-neo replicon cells and replicon cells containing resistance substitutions in the NS5A region were used to test the currently described family of compounds.
Background: In antiviral work, replicon cells carry a viral genome segment that copies itself.

Where [1] appears, read: read-out: Range (EC50 ranges against HCV 1b).
Where [2] appears, read: Hepatitis C virus, read-out: 1b (μM) EC50 (Effective 50% inhibitory concentration).
[3] abbreviates: Hepatitis C virus, read-out: Range (EC50 ranges against HCV 1b).

Like-named read-outs stand apart in the source and are kept apart here.

For the compound `COC(=O)NC(C(=O)N1[C@@H](C)CC[C@H]1c1ncc(-c2ccc(-c3ccc(-c4cnc([C@@H]5CC[C@H](C)N5C(=O)C(NC(=O)OC)C5CCOC6(CCC6)C5)[nH]4)cc3)cc2)[nH]1)C1CCOC2(CCC2)C1` (single isomer, unassigned) [Example 2.1], under setting [1], the EC50 fell in the range of 900 to 140000 pM. The same measure, in the same setting: the value for `COC(=O)NC(C(=O)N1[C@@H](C)CC[C@H]1c1ncc(-c2ccc(-c3ccc(-c4cnc([C@@H]5CC[C@H](C)N5C(=O)C(NC(=O)OC)C5CCOC6(CCC6)C5)[nH]4)cc3)cc2)[nH]1)C1CCOC2(CCC2)C1` (single isomer, unassigned) [Example 2.2] was 900 to 140000 pM; that for `COC(=O)NC(C(=O)N1[C@@H](C)CC[C@H]1c1ncc(-c2ccc(-c3ccc(-c4cnc([C@@H]5CC[C@H](C)N5C(=O)C(NC(=O)OC)C5CCOC6(CCCC6)C5)[nH]4)cc3)cc2)[nH]1)C1CCOC2(CCCC2)C1` (single isomer, unassigned) [Example 3.1] was 900 to 140000 pM. Consider `COC(=O)NC(C(=O)N1[C@@H](C)CC[C@H]1c1ncc(-c2ccc(-c3ccc(-c4cnc([C@@H]5CC[C@H](C)N5C(=O)C(NC(=O)OC)C5CCOC6(CCCC6)C5)[nH]4)cc3)cc2)[nH]1)C1CCOC2(CCCC2)C1` (single isomer, unassigned) [Example 3.2], for which the EC50 under setting [1] lay within 900 to 140000 pM.

`COC(=O)NC(C(=O)N1[C@@H]2C[C@@H]2C[C@H]1c1nc(-c2ccc(-c3ccc(-c4c[nH]c([C@@H]5C[C@H]6C[C@H]6N5C(=O)C(NC(=O)OC)[C@@H]5C[C@@H]6[C@H](C5)C6(F)F)n4)cc3)cc2)c[nH]1)[C@@H]1C[C@@H]2[C@H](C1)C2(F)F` (single isomer, unassigned) [QC1.2]: under setting [2], the EC50 was 4.9 pM.

Regarding `COC(=O)NC(C(=O)N1[C@@H]2C[C@@H]2C[C@H]1c1nc(-c2ccc(-c3ccc(-c4c[nH]c([C@@H]5C[C@H]6C[C@H]6N5C(=O)C(NC(=O)OC)[C@@H]5C[C@@H]6[C@H](C5)C6(F)F)n4)cc3)cc2)c[nH]1)[C@@H]1C[C@@H]2[C@H](C1)C2(F)F` (single isomer, unassigned) [QC1.3], the EC50 under setting [3] was in the range of 100 to 900 pM. Consider `COC(=O)NC(C(=O)N1[C@@H]2C[C@@H]2C[C@H]1c1nc(-c2ccc(-c3ccc(-c4c[nH]c([C@@H]5C[C@H]6C[C@H]6N5C(=O)C(NC(=O)OC)[C@H]5C[C@@H]6C[C@@H]6C5)n4)cc3)cc2)c[nH]1)[C@H]1C[C@@H]2C[C@@H]2C1` (single isomer, unassigned) [QC5.3], for which the EC50 reads like this: under setting [2], 5.55 pM; under setting [3], 5.01 to 100 pM. With `COC(=O)NC(C(=O)N1[C@@H](C)CC[C@H]1c1nc(-c2ccc(-c3ccc(-c4c[nH]c([C@@H]5CC[C@H](C)N5C(=O)C(NC(=O)OC)C5CCC6(CC6)OC5)n4)cc3)cc2)c[nH]1)C1CCC2(CC2)OC1` (some centres unmarked) [Example 1.1], under setting [3], the EC50 was in the range of 5.01 to 100 pM.

Turning to `COC(=O)NC(C(=O)N1[C@@H](C)CC[C@H]1c1nc(-c2ccc(-c3ccc(-c4c[nH]c([C@@H]5CC[C@H](C)N5C(=O)C(NC(=O)OC)C5CCC6(CC6)OC5)n4)cc3)cc2)c[nH]1)C1CCC2(CC2)OC1` (some centres unmarked) [Example 1.2], the EC50 under setting [1] fell in the range of 5.01 to 100 pM. As to `COC(=O)NC(C(=O)N1[C@@H](C)CC[C@H]1c1ncc(-c2ccc(-c3ccc(-c4cnc([C@@H]5CC[C@H](C)N5C(=O)C(NC(=O)OC)C5CC6(CC6)C5)[nH]4)cc3)cc2)[nH]1)C1CC2(CC2)C1` (some centres unmarked) [Example 5.2], the EC50 under setting [3] lay within 900 to 140000 pM.

For `COC(=O)N[C@H](C(=O)C1[C@@H](CF)CC[C@H]1c1ncc(-c2ccc(-c3ccc(-c4cnc([C@@H]5CC[C@H](CF)N5C(=O)[C@@H](NC(=O)OC)[C@H]5CCOC6(CC6)C5)[nH]4)cc3)cc2)[nH]1)[C@H]1CCOC2(CC2)C1` (some centres unmarked) [Example 8], under setting [3], the EC50 is 5.01 to 100 pM. Still for that read-out and setting: the value for `COC(=O)NC(C(=O)N1CCC[C@H]1c1nc(-c2ccc(-c3c[nH]c([C@@H]4CCCN4C(=O)C(NC(=O)OC)C4CCOC5(CC5)C4)n3)cc2)c[nH]1)C1CCOC2(CC2)C1` (stereo partly drawn) [Example QC14, dimethyl (benzene-1,4-diylbis(1H-imidazole-4,2-diyl(2S)pyrrolidine-2,1-diyl(1-(4-oxaspiro[2.5]oct-7-yl)-2-oxoethane-2,1-diyl)))biscarbamate] was 900 to 140000 pM. `COC(=O)NC(C(=O)N1[C@@H]2C[C@@H]2C[C@H]1c1nc(-c2ccc(-c3ccc(-c4c[nH]c([C@@H]5C[C@H]6C[C@H]6N5C(=O)C(NC(=O)OC)[C@H]5C[C@@H]6[C@H](C5)C6(F)F)n4)cc3)cc2)c[nH]1)[C@H]1C[C@@H]2[C@H](C1)C2(F)F` (stereo partly drawn) [QC2.2, dimethyl (4,4′-biphenyldiylbis(1H-imidazole-4,2-diyl(1R,3S,5R)-2-azabicyclo[3.1.0]hexane-3,2-diyl(1-((1R,3r,5S)-6,6-difluorobicyclo[3.1.0]hex-3-yl)-2-oxo-2,1-ethanediyl)))biscarbamate]: the EC50 under setting [1] lay in the range of 5.01 to 100 pM. As to `COC(=O)NC(C(=O)N1[C@@H]2C[C@@H]2C[C@H]1c1nc(-c2ccc(-c3ccc(-c4c[nH]c([C@@H]5C[C@H]6C[C@H]6N5C(=O)C(NC(=O)OC)[C@H]5C[C@@H]6[C@H](C5)C6(F)F)n4)cc3)cc2)c[nH]1)[C@H]1C[C@@H]2[C@H](C1)C2(F)F` (stereo partly drawn) [QC2.3, dimethyl (4,4′-biphenyldiylbis(1H-imidazole-4,2-diyl(1R,3S,5R)-2-azabicyclo[3.1.0]hexane-3,2-diyl(1-((1R,3r,5S)-6,6-difluorobicyclo[3.1.0]hex-3-yl)-2-oxo-2,1-ethanediyl)))biscarbamate], the EC50 was 1080 pM (read-out: 1b (μM) EC50 (Effective 50% inhibitory concentration)) and 900 to 140000 pM under setting [1]. Turning to `COC(=O)NC(C(=O)N1[C@@H]2C[C@@H]2C[C@H]1c1nc(-c2ccc(-c3ccc(-c4c[nH]c([C@@H]5C[C@H]6C[C@H]6N5C(=O)C(NC(=O)OC)[C@@H]5C[C@@H]6C[C@@H]6C5)n4)cc3)cc2)c[nH]1)[C@@H]1C[C@@H]2C[C@@H]2C1` (stereo partly drawn) [QC3.2, dimethyl (4,4′-biphenyldiylbis(1H-imidazole-4,2-diyl(1R,3S,5R)-2-azabicyclo[3.1.0]hexane-3,2-diyl(1-((1R,3r,5S)-bicyclo[3.1.0]hex-3-yl)-2-oxo-2,1-ethanediyl)))biscarbamate], the EC50 under setting [1] fell in the range of 5.01 to 100 pM. With `COC(=O)NC(C(=O)N1[C@@H]2C[C@@H]2C[C@H]1c1nc(-c2ccc(-c3ccc(-c4c[nH]c([C@@H]5C[C@H]6C[C@H]6N5C(=O)C(NC(=O)OC)[C@@H]5C[C@@H]6C[C@@H]6C5)n4)cc3)cc2)c[nH]1)[C@@H]1C[C@@H]2C[C@@H]2C1` (stereo partly drawn) [QC3.3, dimethyl (4,4′-biphenyldiylbis(1H-imidazole-4,2-diyl(1R,3S,5R)-2-azabicyclo[3.1.0]hexane-3,2-diyl(1-((1R,3r,5S)-bicyclo[3.1.0]hex-3-yl)-2-oxo-2,1-ethanediyl)))biscarbamate], the EC50 under setting [1] was 100 to 900 pM. In the case of `COC(=O)N[C@@H](C(=O)N1C2C[C@@H]2C[C@H]1c1nc(-c2ccc(-c3ccc(-c4c[nH]c([C@@H]5C[C@H]6CC6N5C(=O)[C@H](NC(=O)OC)C5[C@H]6COC[C@@H]56)n4)cc3)cc2)c[nH]1)C1[C@H]2COC[C@@H]12` (stereo partly drawn) [QC4.1, dimethyl (4,4′-biphenyldiylbis(1H-imidazole-4,2-diyl(1R,3S,5R)-2-azabicyclo[3.1.0]hexane-3,2-diyl(1-((1R,5S,6s)-3-oxabicyclo[3.1.0]hex-6-yl)-2-oxo-2,1-ethanediyl)))biscarbamate], under setting [1], the EC50 is 5.01 to 100 pM. Still for that read-out and setting: as for `COC(=O)N[C@@H](C(=O)N1C2C[C@@H]2C[C@H]1c1nc(-c2ccc(-c3ccc(-c4c[nH]c([C@@H]5C[C@H]6CC6N5C(=O)[C@H](NC(=O)OC)C5[C@H]6COC[C@@H]56)n4)cc3)cc2)c[nH]1)C1[C@H]2COC[C@@H]12` (stereo partly drawn) [QC4.2, dimethyl (4,4′-biphenyldiylbis(1H-imidazole-4,2-diyl(1R,3S,5R)-2-azabicyclo[3.1.0]hexane-3,2-diyl(1-((1R,5S,6s)-3-oxabicyclo[3.1.0]hex-6-yl)-2-oxo-2,1-ethanediyl)))biscarbamate], the figure is 100 to 900 pM.
